Source: patent publication US20240092741A1, “COMPOSITION FOR PREVENTION OR TREATMENT OF NEUROFIBROMATOSIS TYPE 2 SYNDROME” (PRG S&TECH INC., priority 2021, published 2024)
Peptide text beside a SMILES is read from it. * marks the point of attachment. Cbz = O=C(OCc1ccccc1)*

Experiments:
[1] = system: HEI-193 cells; experiment: Western blotting of marker proteins in HEI-193 cells; type: cell-based, human; conditions: HEI-193 cells pretreated 6 h with leptomycin B 2 ng/ml or MG132 5 μM, then 10 μM compounds 24 h (FIGS. 14F, 14G)
Description: (§1) Cells were harvested and lysed using RIPA buffer [50 mM Tris-Cl, pH 7.5, 150 mM NaCl, 1% NP-40, 0.1% SDS, and 10% sodium deoxycholate] to examine cellular signaling. Protein concentrations in samples were measured using Bio-Rad (Hercules, CA, USA) protein assay kits and BSA standards. The samples (20 μg protein per lane) were separated by sodium dodecyl sulfate-polyacrylamide gel electrophoresis (SDS-PAGE), transferred to Immobilon-P^SQ transfer membranes (Millipore Corp., MA, USA), which were then cultured with 3% skim milk-containing TBS-T buffer (Tris-HCl-based buffer containing 20 mM Tris pH 7.6, 150 mM NaCl, and 0.05% Tween 20) for 1 hour at room temperature and then reacted with primary antibody in TBS-T overnight at 4° C. The membranes were then washed and reacted with secondary horseradish peroxidase (HRP)-conjugated antibodies [goat anti-mouse, goat anti-rabbit, and mouse anti-goat antibodies (Pierce, Thermo Fisher Scientific, Inc., Rockford, IL, USA)] in TBS-T at room temperature for 2 hours. The blots were detected using an HRP-conjugated secondary antibody using ECL kit (Intron, Seoul, Korea).

[2] = system: HEI-193 cells; experiment: Tumorsphere formation assay, HEI-193 cells; type: cell-based, human; conditions: HEI-193 cells, 10 μM, DMEM/F12 medium
Description: (§2) For tumorsphere formation assay, Hei-193 or mouse schwannoma cells (3×10^6 cells/plate) were cultured in DMEM/F12 medium (supplemented with 2% B27 and 40 ng/ml bFGF) and added with the indicated chemicals on non-coated plates for indicated days.

[3] = system: schwannoma; conditions: Mol Cancer Ther 17, 2271-2284, 2018; cited from earlier work
[4] = system: mouse schwannoma cells; experiment: MTT cell viability assay in mouse schwannoma cells; type: cell-based; conditions: mouse schwannoma (NF2 mouse) cells, 10 μM, 48 h
Description: (§3) To measure cell viability, MTT (3-(4,5-dimethylthiazol-2-yl)-2,5-diphenyltetrazolium bromide) assay was used. In other words, the cells were seeded in 96-well plates and treated with the indicated chemicals for a predetermined time. After removing the medium, 200 μl of MTT solution (0.5 mg/ml) dissolved in PBS was added to each well. Plates were then cultured at 37° C. for 4 hours, the MTT solution was removed, the precipitated substances were dissolved using a solution (DMSO:ethanol=1:1), and an amount of formazan dye produced was quantified by measuring the absorbance at 560 nm using an ELISA microplate reader (Thermo Fisher Scientific, MA, USA).

[5] = system: mouse schwannoma cells; experiment: Tumorsphere formation assay, mouse schwannoma cells; type: cell-based; conditions: 10 μM, DMEM/F12 medium
Description: as §2

[6] = system: SOX2; experiment: SOX2 localization by IF and cell fractionation in HEI-193 cells; type: cell-based, human; conditions: 2 μM, 24 h, IF and cell fractionation (FIGS. 15C, 15D)
Description: Cells were seeded on cover glass, washed with PBS, fixed with 4% paraformaldehyde (PFA) for 30 minutes at room temperature, and then permeabilized with 0.2% Triton X-100 at room temperature for 5 minutes. After treatment with blocking buffer [3% goat serum diluted in PBS] for 1 hour, cells were reacted with the specified antibody in the blocking buffer overnight at 4° C. Finally, the cells were reacted with secondary antibodies conjugated with FITC or rhodamine at 4° C. for 7 hours. The nuclei were stained with DAPI at room temperature for 10 minutes. After the cells were washed 3 times with PBS, the cover glass was mounted with a mounting solution (H-5501, Vector Laboratories, Cambridgeshire, UK) and immunofluorescence signals were detected using a fluorescence microscopy (Zeiss, Jena, Germany).

[7] = system: TGF-β signaling; experiment: Smad2/3 phosphorylation after TGF-β1 in HEI-193 cells; type: cell-based, human; conditions: 10 μM, TGF-β1 2 ng/ml added after 12 h for 12 h (FIG. 5D)
Description: as §1

[8] = system: HEI-193 cells; experiment: MTT cell viability assay in HEI-193 cells; type: cell-based, human; conditions: 10 μM, 48 h
Description: as §3

[9] = system: normal fibroblasts; experiment: MTT cell viability assay in normal fibroblasts; type: cell-based, human; conditions: 10 μM, 48 h (FIG. 3)
Description: as §3

[10] = target: T1, interaction between TβR1 and RKIP (Homo sapiens, UniProt P30086+P36897); experiment: GST-pull down assay of TβR1-RKIP interaction; type: binding; conditions: GST-RKIP beads with TβR1-transfected HEK293 lysates, 5 and 10 μM, 2 h (FIG. 5B)
T1 construct: host or cells: HEK293 (TβR1 lysate)
Description: For protein-protein interaction analysis, glutathione S-transferase (GST)-pull down assay was performed. For GST-pull down, agarose-bead-conjugated GST-RKIP recombinant protein was reacted with FLAG-tagged TβR1-transfected HEK 293 cell lysates in PBS buffer at 4° C. for 1 hour. Immunoprecipitation (IP) assay was performed by reacting with FLAG-tagged TβR1- or HA-tagged RKIP-transfected HEI-193 cell lysates in PBS buffer. Whole lysates were reacted with appropriate primary antibodies at 4° C. for 2 hours and with agarose-bead-conjugated protein A/G (Invitrogen, Carlsbad, CA, USA) for 2 hours. After centrifugation, the precipitates were washed twice with RIPA buffer and subjected to SDS-PAGE and western blotting analysis.

[11] = system: RKIP; experiment: RKIP expression by Western blotting in HEI-193 cells; type: cell-based, human; conditions: compounds 10 μM, 24 h (FIG. 1A) or 72 h (FIG. 2), Western blot
Description: as §1
Because RKIP degradation in NF2 cells is clearly known (Mol Cancer Ther 17, 2271-2284, 2018), after first treating 260 novel synthetic compounds, RKIP expression was measured in HEI-193, a human NF2 cell line.

T1 sequence (P30086 whole entry): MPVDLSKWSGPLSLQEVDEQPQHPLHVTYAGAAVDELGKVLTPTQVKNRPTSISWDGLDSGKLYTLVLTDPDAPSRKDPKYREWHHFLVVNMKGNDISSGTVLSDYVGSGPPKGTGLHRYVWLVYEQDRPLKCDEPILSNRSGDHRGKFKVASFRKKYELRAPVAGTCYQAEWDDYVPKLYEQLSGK
T1 sequence (P36897 34-503): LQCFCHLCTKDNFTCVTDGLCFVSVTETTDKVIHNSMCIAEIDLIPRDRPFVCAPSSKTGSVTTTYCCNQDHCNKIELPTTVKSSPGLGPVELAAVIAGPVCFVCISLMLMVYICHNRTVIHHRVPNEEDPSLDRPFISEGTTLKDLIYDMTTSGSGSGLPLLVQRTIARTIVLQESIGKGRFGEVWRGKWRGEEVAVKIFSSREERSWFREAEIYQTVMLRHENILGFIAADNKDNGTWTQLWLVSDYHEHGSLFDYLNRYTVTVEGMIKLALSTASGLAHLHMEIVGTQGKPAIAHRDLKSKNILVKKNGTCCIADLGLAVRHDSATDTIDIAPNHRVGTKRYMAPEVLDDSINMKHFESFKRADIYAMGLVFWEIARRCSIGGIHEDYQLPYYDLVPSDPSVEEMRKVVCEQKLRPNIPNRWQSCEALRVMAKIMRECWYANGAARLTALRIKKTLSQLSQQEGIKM

With `CC(C)C[C@@H](C=O)NC(=O)[C@H](CC(C)C)NC(=O)[C@H](CC(C)C)NC(=O)OCc1ccccc1` [MG312, reference compound] (Cbz-Leu-Leu-Leu-aldehyde) the “PRG-N-01/TEW7197-induced reduction in SOX2” value [1] was “blocked”.
In the case of `Cc1cccc(-c2[nH]c(CNc3ccccc3F)nc2-c2ccc3ncnn3c2)n1` [TEW7197, N-((4-([1,2,4]triazolo[1,5-a]pyridin-6-yl)-5-(6-methylpyridin-2-yl)-1H-imidazol-2-yl)methyl)-2-fluoroaniline, reference compound], the tumorsphere formation [2] is given as “weak inhibitory effect”, the “schwannoma in a mouse model with NF2 syndrome” value [3] is given as “inhibited schwannoma” and the “cell viability (MTT)” value [4] is given as “suppressed cell viability”. The tumorsphere formation [5] was “weak inhibitory effect”, the “localization of nuclear SOX2” value [6] was “moved to the cytosol” and the “Smad2/3 phosphorylation in response to TGF-β” value [7] was “TGF-β signal inhibition”. For the same compound, the “cell viability (MTT)” value [8] was “suppressed cell viability”.
For `CCC(=C/[C@H](C)C/C=C/C(C)=C/[C@@H](C)C(=O)[C@@H](C)[C@H](O)[C@@H](C)C/C(C)=C/C(=O)O)/C=C/[C@@H]1OC(=O)C=C[C@@H]1C` [leptomycin B, reference compound], the “PRG-N-01/TEW7197-induced reduction in SOX2” value [1] was “blocked”.
In the case of `CCN(CC)CCOc1ccc(-c2nnn(Cc3ccc(OCc4ccccc4)cc3)c2NC(=O)OC(C)(C)C)cc1` [NF-08001], the “cytotoxicity in normal cells (MTT)” value [9] is reported as “exhibited normal cytotoxicity”, the “cell viability (MTT)” value [8] is reported as “anti-proliferating effect” and the “interaction between TβR1 and RKIP” value [10] is reported as “inhibitory effect”. For the same compound, the RKIP expression [11] was “induction of RKIP”.
